Test results taken from patent publication US11932870B2, “Compositions and methods for immune cell modulation in adoptive immunotherapies” (Fate Therapeutics, Inc., priority 2016, dated 2024).

Legend:
Nalm-6-luc tumor cells = test: In vivo tumor clearance by compound-treated CD19 CAR-T cells; settings: NSG mice with Nalm-6-luc; 2.0×10^5 cryopreserved compound-treated CAR-T cells per animal (1:1 CD4:CD8); imaging; FIGS. 7 and 8
Procedure: NSG mice were injected with Nalm-6-luc, a CD19+ human tumor line engineered to express firefly luciferase. CAR-T cells were generated from CD4+ and CD8+ T cells that were separately activated and expanded in vitro. The cells were transduced with the CAR-2 construct (FIG. 2) one day after activation and then replated into 24-well GREX plates with or without the compounds. Half the media was replaced every two days thereafter until harvest one week post-activation. Cells were cryopreserved and then thawed for use. NSG mice were infused with tumor cells followed […] by CAR-T transfer via retroorbital injection. Four days after IV. injection with Nalm-6-luc cells, mice were treated with 2.0×10^5 CAR-T cells per animal (1:1 CD4:CD8). The mice were imaged periodically to determine tumor burden.

CD8 CAR-T cells = test: Exhaustion marker expression (PD-1, Tim-3) on CD8 CAR-T cells; format: cell-based, human
Procedure: (§1) Culturing cells in large-scale for phenotypic and exhaustion marker evaluation. Isolated CD8 T cells were activated in bulk on day 0 using anti-CD3/anti-CD28 beads in T cell media supplemented with IL-2. On day 1, cells were transduced with the CAR Construct and cell density was adjusted to 0.5×10^6/ml and 10^6 cells were seeded into 12-well plates in the presence of vehicle, TWS119, or DCC-2036. On day 4, cells were transferred into 6-well plates and 2 ml of T cell media was added to each well. On day 6 another 2 ml of media was added to each well. On day 8, CAR T cells were analyzed on a flow cytometer for surface expression of phenotypic markers (CD62L, CCR7, and CD27) and exhaustion markers (PD-1 and Tim-3).
To determine the effect of compound treatment of CAR-T cells on exhaustion marker expression, cells from three different donors were prepared and treated as described in the protocol above. PD-1 and Tim-3 expression was determined using flow cytometry. […] Tim-3 expression was reduced 2-fold with TWS119, and 3.7-fold with DCC-2036 treatment (FIG. 6A).

[1] = system: CAR-T cells co-cultured with irradiated K562 tumor cells that express CD19; test: In vitro serial killing/re-stimulation assay; format: cell-based, human; settings: relative to vehicle; FIG. 3C
Source text: An informative clinical parameter that can in some contexts be indicative of likelihood of successful adoptive cell therapy in clinical trials is the ability and extent of expansion of the transferred cells in the patient post-treatment and/or persistence and continued function following initial expansion, e.g., in the context of continued exposure to antigen. The ability of engineered T cells to persist and continue expanding over multiple rounds of antigen stimulation can be indicative of such features and/or likelihood of in vivo function or clinical response. An in vitro serial killing/re-stimulation assay, where the T cells treated by each compound were evaluated for various functions, including expansion and ability to kill tumor cells expressing the target antigen in vitro over multiple rounds of exposure to and withdrawal from antigen, was used as a model system. Such assays were carried out on cells treated with or without compounds, to assess the impact of individual compounds on cell function after repeated encounter with antigen, and cell expansion or persistence in such contexts.
CD8 T cells were activated, transduced, and expanded in the presence of DMSO, TWS119, or DCC-2036. At the end of the expansion, the CAR-T cells were cryopreserved. The serial re-stimulation assay was performed by thawing the CAR-T cells and co-culturing with irradiated K562 tumor cells that express CD19, the antigen recognized by the CAR. Prior to starting each round of killing, cell numbers were adjusted so that CAR-T cell numbers were substantially the same from the cultures generated with DMSO, TWS119, and DCC-2036 treatment respectively. An equal number of irradiated CD19-expressing K562 target cells were added to the different CAR-T cultures.

[2] = system: CD8 T cells transduced with CAR Construct 1; test: Tcm phenotype skewing of CAR-T cells (CD62L, CCR7, CD27 surface expression); format: cell-based, human; settings: flow cytometry day 8
Procedure: as §1
To determine the effect of compound treatment on skewing towards a central memory phenotype, isolated CD8 T cells were activated in bulk on day 0 using anti-CD3/anti-CD28 beads in T cell media supplemented with IL-2. On day 1, cells were transduced with the CAR Construct 1 shown in FIG. 2 and cell density was adjusted to 0.5×10^6/ml and 10^6 cells were seeded into 12 well plates in the presence of vehicle (DMSO), TWS119 or DCC-2036 at the same concentrations. On day 4, cells were transferred into 6-well plates and 2 ml of media was added to each well. On day 6 another 2 ml of media was added to each well. On day 8, cells were analyzed on a flow cytometer for cell surface expression of CD27.
The expression of CD27 observed with vehicle treatment was defined as an MFI (mean fluorescence intensity) of 1 and the relative MFI of cells treated with compound was calculated.

SMILES: Nc1cccc(-c2cc3c(Oc4cccc(O)c4)ncnc3[nH]2)c1 [TWS119]
- tumor burden / tumor control (Nalm-6-luc tumor cells): minimal tumor control
- expression of T cell exhaustion marker Tim-3 (CD8 CAR-T cells; CD8 T cells at one week post activation, relative to DMSO, FIG. 6A): reduced expression
- expression of T cell exhaustion marker PD-1 (CD8 CAR-T cells; CD8 T cells at one week post activation, relative to DMSO, FIG. 6B): reduced expression
- reduction of Tim-3 expression (CD8 CAR-T cells; relative to vehicle, three donors, FIG. 6A): 2 fold
- decrease in PD-1 surface expression (CD8 CAR-T cells; relative to vehicle, three donors, FIG. 6B): 3.3 fold
- cell number expansion of CAR-T cells in rounds 3 and 4 of the serial re-stimulation assay [1]: modest increase in expansion relative to vehicle
- increase in the frequency of CAR-T cells expressing both CD62L and CCR7 ([2]; relative to vehicle (DMSO), FIG. 4A): 1.7 fold
- increase in the expression of the differentiation marker CD27 (relative MFI) ([2]; relative to vehicle (MFI defined as 1), FIG. 4B): did not have an effect
